This note sets out measurements from US11248234B2, “Herbicide-resistant hydroxyphenylpyruvate dioxygenases” (BASF SE, priority 2015, dated 2022).

Molecules are shown by their SMILES.

In assay [1] the test system is transgenic Arabidopsis plants (T2) SoHPPD I419V (short). In words: Greenhouse spray test, injury evaluation. As to conditions: for Injury: 14 DAT. It is filed as in vivo, Arabidopsis thaliana. The procedure: (§1) Non-transgenic control plants were treated in parallel and pictures taken 14 days after treatment.
(§2) For post emergence treatment, the test plants are first grown to a height of 3 to 15 cm, depending on the plant habit, and only then treated with the herbicides. For this purpose, the test plants are either sown directly and grown in the same containers, or they are first grown separately and transplanted into the test containers a few days prior to treatment.
(§3) Additionally, T1 and T2 transgenic Arabidopsis plants can be tested for improved tolerance to HPPD-inhibiting herbicides in greenhouse studies. Herbicide injury scoring is done 2-3 weeks after treatment and is rated on a scale of 0 to 100%, 0% being no injury and 100% being complete death.
(§4) Transgenic T2 Arabidopsis plants were sprayed with a range of doses from 1.56-25 g/ha of different HPPD-inhibiting herbicides and injury evaluations were taken two weeks after treatment (FIG. 4). As depicted in Table 8, control plants were severely injured by all doses of herbicides applied, with at least 58% of leaf material being damaged at the lowest application rate and 100% leaf damage at the second application rate.

For assay [2], the system named is WT (non-transgenic control) Arabidopsis plants. In words: Greenhouse spray test, injury evaluation. It counts as in vivo, Arabidopsis thaliana. The conditions noted are these: 14 DAT. How it is done: as §1, §2, §3, §4
In assay [3] the test system is Arabidopsis overexpression line SoHPPD_F363I (short). Kind of assay: Germination assay in 48-well plates (tolerance factor). It is filed as in vivo, Arabidopsis thaliana. As to conditions: plant growth IC50 transgenic / wildtype; mean of 5 T2 events; non-transgenic set to 1. How it is done:
(§5) Tolerance to HPPD-inhibiting herbicides can also be assessed in Arabidopsis. In this case transgenic Arabidopsis thaliana plants are assayed for improved tolerance to HPPD-inhibiting herbicides in 48-well plates (germination assay). Seeds are surface sterilized by stirring for 5 min in ethanol+water (70+30 by volume), rinsing one time with ethanol+water (70+30 by volume) and two times with a sterile, deionized water. The seeds are resuspended in 0.1% agar dissolved in water (w/v). Four to five seeds per well are plated on solid nutrient medium consisting of half-strength Murashige Skoog nutrient solution, pH 5.8 (Murashige and Skoog (1962) Physiologia Plantarum 15: 473-497). Compounds are dissolved in dimethylsulfoxid (DMSO) and added to the medium prior solidification (final DMSO concentration 0.1%). Multi well plates are incubated in a growth chamber at 22° C., 75% relative humidity and 110 μmol Phot*m−2*s−1 with 14:10 h light:dark photoperiod. Growth inhibition is evaluated seven to ten days after seeding in comparison to wild type plants. Tolerance factor is calculated by dividing the plant growth IC50 value of transgenic plants containing a HPPD sequence by that of wildtype plants.

Assay [4] concerns Arabidopsis overexpression line SoHPPD I419V (short). The description is as above. It counts as in vivo, Arabidopsis thaliana. The conditions noted are these: plant growth IC50 transgenic / wildtype; mean of 5 T2 events; non-transgenic set to 1. The procedure: as §5
Assay [5] concerns Arabidopsis overexpression line SoHPPD I455V. The assay is described as above. As to conditions: plant growth IC50 transgenic / wildtype; mean of 5 T2 events; non-transgenic set to 1. It counts as in vivo, Arabidopsis thaliana. How it is done:
as §5

Assay [6] relates to Arabidopsis overexpression line SoHPPD Q317H (short). Described as above. It is filed as in vivo, Arabidopsis thaliana. As to conditions: plant growth IC50 transgenic / wildtype; mean of 5 T2 events; non-transgenic set to 1. How it is done: as §5
The test system of assay [7] is Arabidopsis overexpression line SoHPPD Q317H, A318G, E345Q (short). The assay is described as above. It counts as in vivo, Arabidopsis thaliana. As to conditions: plant growth IC50 transgenic / wildtype; mean of 5 T2 events; non-transgenic set to 1. How it is done:
as §5

The test system of assay [8] is Arabidopsis overexpression line SoHPPD (SEQ ID NO: 4). The assay is described as above. It counts as in vivo, Arabidopsis thaliana. The conditions noted are these: plant growth IC50 transgenic / wildtype; mean of 5 T2 events; non-transgenic set to 1. How it is done:
as §5

For assay [9], the system named is Arabidopsis overexpression line SoHPPD (SEQ ID NO: 2). Described as above. As to conditions: plant growth IC50 transgenic / wildtype; mean of 5 T2 events; non-transgenic set to 1. It is filed as in vivo, Arabidopsis thaliana. How it is done:
as §5

The test system of assay [10] is Scenedesmus HPPD with glutamine 317 exchanged to methionine, alanine 318 substituted by glycine and glutamate 345 mutated to glutamin. In words: In vitro HPPD activity assay. It is filed as biochemical, Scenedesmus obliquus. As to conditions: in words, from Table 6 data. How it is done:
HPPD produces homogentisic acid and CO2 from 4-hydroxyphenylpyruvate (4-HPP) and O2. The activity assay for HPPD is based on the analysis of homogentisic acid by reversed phase HPLC.
The assay mixture can contain 150 mM potassium phosphate buffer pH 7.0, 50 mM L-ascorbic acid, 100 μM Catalase (Sigma-Aldrich), 1 μM FeSO4 and 0.2 units of purified mutated HPPD enzyme in a total volume of 505 μl. 1 unit is defined as the amount of enzyme that is required to produce 1 nmol of HGA per minute at 20° C.
After a preincubation of 30 min the reaction is started by adding 4-HPP to a final concentration of 0.05 mM. The reaction is allowed to proceed for 45 min at room temperature. The reaction is stopped by the addition of 50 μl of 4.5 M phosphoric acid. The sample is filtered using a […] pore size PVDF filtration device.
5 μl of the cleared sample is analyzed on an UPLC HSS T3 column (particle size 1.8 μm, dimensions 2.1×50 mm; Waters) by isocratic elution using 90% 20 mM NaH2PO4 pH 2.2, 10% methanol (v/v).
HGA is detected electrochemically at 750 mV (mode: DC; polarity: positive) and quantified by integrating peak areas (Empower software; Waters).
Inhibitors are dissolved in DMSO (dimethylsulfoxide) to a concentration of 0.5 mM. From this stock solution serial five-fold dilutions are prepared in DMSO, which are used in the assay. […] IC50 values are calculated using non-linear regression. […]

For `Cc1c(C(=O)c2cnn(C)c2O)ccc(S(C)(=O)=O)c1C1=NOCC1` [Inhibitor 1, [3-(4,5-dihydroisoxazol-3-yl)-2-methyl-4-methylsulfonyl-phenyl]-(5-hydroxy-1-methyl-pyrazol-4-yl)methanone], the Injury in [1] (Event G, 1.56 g ai/ha) turned out to be 5%; in [1] (Event G, 6.25 g ai/ha), 8%; in assay [1] (Event G, 25 g ai/ha), 13%; in assay [1] (Event H, 1.56 g ai/ha), 0%; in [1] (Event H, 6.25 g ai/ha), 0%; in assay [1] (Event H, 25 g ai/ha), 13%. Besides, the Injury in assay [2] (1.56 g ai/ha) was 75%; in [2] (6.25 g ai/ha), 100%; in [2] (25 g ai/ha), 100%. Further, the Tolerance factor in assay [3] was 1000; in assay [4], 100; in assay [5] it was 7; in assay [6] it was 100; in assay [7], 50; in assay [8], 82. In addition, the Tolerance factor in assay [9] stood at 92.

On to `CS(=O)(=O)c1ccc(C(=O)C2C(=O)CCCC2=O)c([N+](=O)[O-])c1` [Inhibitor 2, 2-(4-methylsulfonyl-2-nitro-benzoyl)cyclohexane-1,3-dione], for which the average injury rate in [1] (25 g ai/ha, average of events) was 75%. The Injury came out at 0% in [1] (Event G, 1.56 g ai/ha); 0% in assay [1] (Event G, 6.25 g ai/ha); 95% in [1] (Event G, 25 g ai/ha); 5% in [1] (Event H, 1.56 g ai/ha); 8% in [1] (Event H, 6.25 g ai/ha); 58% in [1] (Event H, 25 g ai/ha). The results for the Injury in assay [2] (1.56 g ai/ha), in [2] (6.25 g ai/ha) and in assay [2] (25 g ai/ha) were 58%, 100% and 100%, respectively.

`CCS(=O)(=O)c1cc(C(F)(F)F)ccc1C1=C(O)c2ncccc2C(C)(C)S1(=O)=O` [Inhibitor 4, 7-[2-ethylsulfonyl-4-(trifluoromethyl)phenyl]-5,5-dimethyl-6,6-dioxo-thiopyrano[4,3-b]pyridin-8-ol]: the “resistance of the enzyme to the inhibitor” value in [10] is “conferred resistance”.
